Reference: the NIST ThermoML archive (doi:10.1021/acs.jced.6b00751)
± gives the expanded uncertainty stated by the source.

Conditions: 101.33 kPa, Liquid, Vibrating tube method

SMILES	mass density (298.15 K)	mass density (313.15 K)	mass density (333.15 K)	mass density (353.15 K)
CCCCn1cc[n+](C)c1.F[P-](F)(F)(F)(F)F [1-butyl-3-methylimidazolium hexafluorophosphate]	1369.9 ± 18 kg/m3	1350.4 ± 26 kg/m3	1325.2 ± 21 kg/m3	1288.4 ± 39 kg/m3
CCOS(=O)(=O)[O-].CCn1cc[n+](C)c1 [1-ethyl-3-methylimidazolium ethyl sulfate]	1234.1 ± 18 kg/m3	1219.1 ± 18 kg/m3	1199.1 ± 27 kg/m3	1170.4 ± 39 kg/m3
